Assays:
ARPE-19 cells = assay: Chemosensitivity (MTT cell viability) assay, noncancerous ARPE-19; type: cell-based, human; settings: ARPE-19 noncancerous, 96 h, n = 9
Protocol: The cytotoxicity of the compounds against the cancer cell lines was also compared to the noncancerous retinal epithelial cell line, ARPE-19, to determine the possibility of cancer cell selectivity. […]
(§1) All cytotoxicity assays were conducted using human cell lines: breast adenocarcinomas (MDA-MB-231 and MCF-7), pancreatic carcinoma (MIA PaCa-2) and non-cancerous epithelial retinal (ARPE-19) cell lines. All cell lines were routinely maintained as monolayer cultures in appropriate complete media:
(§2) MCF-7, MIA PaCa-2 and ARPE-19 in high glucose DMEM and MDA-MB-231 in RPMI-1640, and both media were supplemented with 10% FBS, 1 mM sodium pyruvate, 2 mM L-glutamine, and 1% pen-strep. All cells were initially grown in T-25 or T-75 flasks at 37 °C and 5% CO2. Before chemosensitivity studies, cell monolayers were passaged using trypsin-EDTA (0.05%) and diluted to a concentration of 1 x 10^4 cells/mL (or 4 x 10^4 cells mL for 24 h assays). All assays were conducted in 96-well plates, in which 100 µL of the cell suspension was added for 24 h at 37 °C and 5% CO2, and then 100 µL of compound/medium dilutions for a further 96 h (or 24 h). All compound stocks were made using sterile DMSO at 100 mM before dilution, and a maximum of 0.1% DMSO was used in each assay. After incubation, 3-(4,5-dimethylthiazol-2-yl)-2,5-diphenyltetrazolium bromide (20 µL, 5 mg/mL in PBS) was added to each well and incubated for 3 h at 37°C and 5% CO2. All solutions were then aspirated, DMSO (150 µL) added to each well, gently mixed, and the absorbance was measured at 540 nm using a ClarioStar spectrophotometer microplate reader. Results were plotted on a logarithmic scale, and the half maximal inhibitory concentration (IC50) was determined from a triplicate of triplicate repeats (n = 9) and reported as an IC 50 ± Standard Deviation (SD).

MDA-MB-231 cells = assay: Chemosensitivity (MTT cell viability) assay, MDA-MB-231; type: cell-based, human; settings: for IC50: n = 9; for Selectivity index (SI): MDA-MB-231 compared to ARPE-19, 96 h
Protocol: as §1, §2

MCF-7 cells = assay: Chemosensitivity (MTT cell viability) assay, MCF-7; type: cell-based, human; settings: for IC50: MCF-7, 96 h, n = 9; for Selectivity index (SI): MCF-7 compared to ARPE-19, 96 h
Protocol: as §1, §2

[1] = Stability by UV/vis spectroscopy in fully supplemented phenol-red free media; type: physicochemical; settings: 37 °C, monitored over 96 h
Protocol: d6/D2O mixture (70/30) spiked with 0.1 M NaCl for 96 hours, before HR -MS was conducted; these are […]
Stability Assay by NMR Spectroscopy
Compounds 1-4 (3-4 mg) were dissolved in a 500 µL mixture of 90% DMSO -d6 and 10% D2O. 1H and 31P NMR spectra were obtained by a Bruker Avance 500 MHz at room temperature and multiple time points over 4 days. A solution of sodium chloride in D2O (26.3 g/L, 143 µL) was added to the same samples (final concentration 0.1 M NaCl in 70 % DMSO-d6 and 30% D2O) to mimic the chloride concentration in blood. 1H and 31P NMR spectra were obtained by a Bruker Avance 500 MHz at room temperature and multiple time points over 4 days.
Stability Assays by UV/vis Spectroscopy
The compounds were dissolved in DMSO and added to fully supplemented DMEM phenol-red free media (see Cell Viability Assays section for all additives) under sterile conditions to obtain a final concentration of 60 µg/mL. UV/vis spectra were obtained every 30 min for 96 h at 37 °C.
as §1
MCF-7, MIA PaCa-2 and ARPE-19 in high glucose DMEM and MDA-MB-231 in RPMI-1640, and both media were supplemented with 10% FBS, 1 mM sodium pyruvate, 2 mM L-glutamine, and 1% pen-strep. All cells were initially grown in T-25 or T-75 flasks at 37 °C and 5% CO2. […] All solutions were then aspirated, DMSO (150 µL) added to each well, gently mixed, and the absorbance was measured at 540 nm using a ClarioStar spectrophotometer microplate reader. Results were plotted on a logarithmic scale, and the half maximal inhibitory concentration (IC50) was determined from a triplicate of triplicate repeats (n = 9) and reported as an IC 50 ± Standard Deviation (SD).

MIA PaCa-2 cells = assay: Chemosensitivity (MTT cell viability) assay, MIA PaCa-2; type: cell-based, human; settings: for IC50: MIA PaCa-2, 96 h, n = 9; for Selectivity index (SI): MIA PaCa-2 compared to ARPE-19, 96 h
Protocol: as §1, §2

plasmid DNA = assay: Plasmid DNA interaction, agarose gel electrophoresis; type: biochemical; settings: 200 ng plasmid DNA, 100–400 μM, cell-free
Protocol: The ability of compounds to intercalate, nick, or cleave DNA can be evaluated using gel electrophoresis with plasmid DNA. In this study, in vitro plasmid DNA assays were performed by incubating 200 ng of plasmid DNA with different concentrations (100–400 μM) of 1 or CDDP, which served as a positive control. The DNA fragments were then separated via agarose gel electrophoresis, and potential changes in DNA migration patterns were analyzed.
5 Plasmid DNA (200 ng) was incubated with varying concentrations (100, 200, and 400 μM) of compound 1 or CDDP for 24 h at room temperature. The DNA was then separated via agarose gel electrophoresis, and the intensity of supercoiled and nicked circular DNA bands was quantified and expressed as mean ± SEM (n = 4).
MDA-MB-231 cells at 4000 cells/well were seeded into a black clear -bottom 96-well plate using phenol-red free complete RMPI medium, and incubated for 48 h. […] Fluorescence images were obtained using a Zeiss Observer 7 inverted microscope at excitation at 488 nm and emission at 509 […]
Plasmid DNA (200 ng, pBOS -H2B-GFP, BD Biosciences) was incubated overnight at room temperature with 1 or CDDP at concentrations between 100 and 400 μM in double -distilled H2O (20 μL total volume). […] The experiment was conducted in two biological replicates, and the band intensities were quantified and analyzed using ImageJ software. […]

Row | Compound | IC50 (ARPE-19 cells) [µM] | IC50 (MDA-MB-231 cells; MDA-MB-231, 24 h) [µM] | IC50 (MDA-MB-231 cells; MDA-MB-231, 96 h) [µM] | Selectivity index (SI) (MDA-MB-231 cells) | IC50 (MCF-7 cells) [µM] | Selectivity index (SI) (MCF-7 cells) | Time to full decomposition (no further changes in UV/vis spectra) [1] | IC50 (MIA PaCa-2 cells) [µM] | Selectivity index (SI) (MIA PaCa-2 cells) | Plasmid DNA migration (plasmid DNA)
1 | [Cp*Ir(C16H12Cl2NO)(PTA)](PF6) [Compound 2] | 16 ± 1 | 21 ± 1 | 5.4 ± 0.3 | 3.0 | 45.1 ± 0.8 | 0.4 | 64 h | 14.9 ± 0.7 | 1.1 | –
2 | [Cp*Ir(C16H13BrNO)(PTA)](PF6) [Compound 3] | 14.6 ± 0.8 | 22 ± 1 | 4.8 ± 0.5 | 3.0 | 32.4 ± 0.3 | 0.5 | over 96 h | 11.2 ± 0.1 | 1.3 | –
3 | [Cp*Ir(C18H18NO2)(PTA)](PF6) [Compound 4] | 10.7 ± 0.4 | 36 ± 1 | 4.1 ± 0.5 | 2.6 | 34.3 ± 0.6 | 0.3 | 72 h | 10 ± 1 | 1.1 | –
4 | N.N.O=C([O-])C1(C(=O)[O-])CCC1.[Pt+2] [CARB, carboplatin, reference compound] | > 100 | > 100 | 16 ± 1 | > 6.3 | 40 ± 1 | > 2.5 | – | 40 ± 4 | > 2.5 | –
5 | [NH2][Pt]([NH2])([Cl])[Cl] [CDDP, cisplatin, reference compound] | 6 ± 0.2 | > 100 | 2.2 ± 0.3 | 2.7 | 6.1 ± 0.9 | 1.0 | – | 3.9 ± 0.6 | 1.5 | faster DNA migration
